From patent US20250108038A1 (priority 2023, published 2025)
Values joined by “and” are separate entries in the source; they are usually repeats but may differ in a detail not shown here. Equal entries are not always repeated. Structures can show the parent of a compound that is named as a salt.

Test system: Long Evans rats
Test: Behavioral satiety sequence (BSS)
Format: in vivo, Long Evans rat
From the text: The Behavioural Satiety Sequence (BSS) is a technique used to evaluate physiological satiety. It is based on the expression of a sequence of behaviors including eating, grooming, locomotor activity, followed by resting, which are typically observed in rodents post-ingestion (Halford et al, 1998, Pharmacology Biochemistry and Behaviour. 61(2): 159-168). The BSS is a widely used model for determining the effects of novel pharmaceuticals on food intake and measures of satiety in rodents (Oliveira et al, 2011, Revista de Nutrição. 24(4) 619-628), and to discriminate the cause of reduced food intake following pharmacological manipulation. For example, treatments that may reduce food intake by non-specific mechanisms, such as immobility, malaise, and taste adulteration, will disrupt this sequence (Halford et al, 1998, Pharmacology Biochemistry and Behaviour. 61(2): 159-168).
Specifically, 12 male Long-Evans rats were food-deprived for 22 h with a 2 h feeding period each day. Rats were trained to consume daily food during the 2 h period over 25 days. The testing phase was initiated once the rats consistently consumed 16-18 g of food per day with ≤10% variance in amount of feed consumed. Feeding took place in designated individual boxes in a quiet room separate from the housing room. Continuous remote monitoring via video camera during feeding was used to assess the BSS. Food consumption was measured by weighing the total available food before and after the 2 h feeding window, correcting for spillage. Lorcaserin (1 mg/kg) was included as a reference control (Higgins et al, 2011, Neuropsychopharmacology. 37(5): 1177-1191). Subjects were tested using a repeated-measures, Latin square design with 2-3 days wash-out between treatment cycles.
On scheduled test days, animals were monitored remotely via video camera during the feeding access period. The occurrence of four mutually exclusive behaviors (eating/drinking, grooming, active, rest) were individually scored. Over the 2 h feeding period, behaviors were assessed every 30 seconds. Scores were compiled into 23 5 min timebins (timebin 24 was removed due to early removal of animals) and the frequency of each behavior within each timebin was calculated to determine a temporal frequency of each measure (Rodgers et al, 2010, Pharmacology Biochemistry and Behaviour. 97: 3-14). Percentage time was plotted for each behavioral sequence in each timebin to compare between treatment groups (Higgins et al, 2011, Neuropsychopharmacology. 37(5): 1177-1191).

[1] = Lorcaserin 1 mg/kg, AVG of animals LT-1 to LT-12, 0-0.5 hours
[2] = Lorcaserin 1 mg/kg, raw data per animal LT-1 to LT-12, 0-0.5 hours, hydrochloride
[3] = lorcaserin 1 mg/kg, AVG of animals LT-1 to LT-12
[4] = lorcaserin 1 mg/kg, raw score per animal (LT-1 to LT-12), hydrochloride

C[C@H]1CNCCc2ccc(Cl)cc21 [lorcaserin, Lorcaserin hydrochloride, reference compound]
BSS scoring R (resting), Time Bin 12 (55-60 TOTAL) (Lorcaserin 1 mg/kg s.c., raw score per animal, hydrochloride): 0 (10×) and 1 (2×)
BSS scoring A (active), Time Bin 1 (0-5 TOTAL), AVG [1]: 0.17
BSS scoring A (active), Time Bin 2 (5-10 TOTAL), AVG [1]: 0.08
BSS scoring A (active), Time Bin 3 (10-15 TOTAL), AVG [1]: 0.09
BSS scoring A (active), Time Bin 4 (15-20 TOTAL), AVG [1]: 0.10
BSS scoring A (active), Time Bin 5 (20-25 TOTAL), AVG [1]: 0.18
BSS scoring A (active), Time Bin 6 (25-30 TOTAL), AVG [1]: 0.15
BSS scoring E (eating/drinking), Time Bin 1 (0-5 TOTAL), AVG [1]: 0.75
BSS scoring E (eating/drinking), Time Bin 2 (5-10 TOTAL), AVG [1]: 0.83
BSS scoring E (eating/drinking), Time Bin 3 (10-15 TOTAL), AVG [1]: 0.78
BSS scoring E (eating/drinking), Time Bin 4 (15-20 TOTAL), AVG [1]: 0.78
BSS scoring E (eating/drinking), Time Bin 5 (20-25 TOTAL), AVG [1]: 0.71
BSS scoring E (eating/drinking), Time Bin 6 (25-30 TOTAL), AVG [1]: 0.75
BSS scoring G (grooming), Time Bin 1 (0-5 TOTAL), AVG [1]: 0.08
BSS scoring G (grooming), Time Bin 2 (5-10 TOTAL), AVG [1]: 0.09
BSS scoring G (grooming), Time Bin 3 (10-15 TOTAL), AVG [1]: 0.10
BSS scoring G (grooming), Time Bin 4 (15-20 TOTAL), AVG [1]: 0.09
BSS scoring G (grooming), Time Bin 5 (20-25 TOTAL), AVG [1]: 0.12
BSS scoring G (grooming), Time Bin 6 (25-30 TOTAL), AVG [1]: 0.05
BSS scoring R (resting), Time Bin 1 (0-5 TOTAL), AVG [1]: 0.01
BSS scoring R (resting), Time Bin 2 (5-10 TOTAL), AVG [1]: 0.01
BSS scoring R (resting), Time Bin 3 (10-15 TOTAL), AVG [1]: 0.02
BSS scoring R (resting), Time Bin 4 (15-20 TOTAL), AVG [1]: 0.03
BSS scoring R (resting), Time Bin 5 (20-25 TOTAL), AVG [1]: 0.00
BSS scoring R (resting), Time Bin 6 (25-30 TOTAL), AVG [1]: 0.05
BSS scoring R (resting), Time Bin 5 (20-25 TOTAL) (Lorcaserin 1 mg/kg, raw data per animal LT-1 to LT-12, 0-0.5 hours): 0
BSS scoring A (active), Time Bin 1 (0-5 TOTAL) [2]: 3 (3×) and 2 (4×) and 1 (3×) and 0 (2×)
BSS scoring A (active), Time Bin 2 (5-10 TOTAL) [2]: 1 (3×) and 0 (6×) and 2 (3×)
BSS scoring A (active), Time Bin 3 (10-15 TOTAL) [2]: 1 (7×) and 0 (3×) and 2 (2×)
BSS scoring A (active), Time Bin 4 (15-20 TOTAL) [2]: 3 (3×) and 1 (3×) and 0 (6×)
BSS scoring A (active), Time Bin 5 (20-25 TOTAL) [2]: 0 (3×) and 1 (3×) and 3 (2×) and 4 (2×) and 2 (2×)
BSS scoring A (active), Time Bin 6 (25-30 TOTAL) [2]: 2 (2×) and 0 (4×) and 1 (4×) and 7 and 3
BSS scoring E (eating/drinking), Time Bin 1 (0-5 TOTAL) [2]: 7 (4×) and 6 (3×) and 8 (2×) and 10 and 9 (2×)
BSS scoring E (eating/drinking), Time Bin 2 (5-10 TOTAL) [2]: 6 (2×) and 9 (4×) and 8 (3×) and 7 and 10 (2×)
BSS scoring E (eating/drinking), Time Bin 3 (10-15 TOTAL) [2]: 8 (6×) and 5 and 7 and 6 and 10 and 9 (2×)
BSS scoring E (eating/drinking), Time Bin 4 (15-20 TOTAL) [2]: 7 (3×) and 8 and 6 (3×) and 10 and 9 (4×)
BSS scoring E (eating/drinking), Time Bin 5 (20-25 TOTAL) [2]: 9 (2×) and 8 (4×) and 7 (3×) and 4 (2×) and 6
BSS scoring E (eating/drinking), Time Bin 6 (25-30 TOTAL) [2]: 7 (2×) and 9 (4×) and 10 and 8 (3×) and 1 and 5
BSS scoring G (grooming), Time Bin 1 (0-5 TOTAL) [2]: 0 (4×) and 2 and 1 (7×)
BSS scoring G (grooming), Time Bin 2 (5-10 TOTAL) [2]: 3 and 1 (4×) and 0 (5×) and 2 (2×)
BSS scoring G (grooming), Time Bin 3 (10-15 TOTAL) [2]: 1 (4×) and 2 (4×) and 0 (4×)
BSS scoring G (grooming), Time Bin 4 (15-20 TOTAL) [2]: 0 (4×) and 1 (5×) and 2 (3×)
BSS scoring G (grooming), Time Bin 5 (20-25 TOTAL) [2]: 1 (3×) and 2 (4×) and 0 (4×) and 3
BSS scoring G (grooming), Time Bin 6 (25-30 TOTAL) [2]: 0 (7×) and 1 (4×) and 2
BSS scoring R (resting), Time Bin 1 (0-5 TOTAL) [2]: 0 (11×) and 1
BSS scoring R (resting), Time Bin 2 (5-10 TOTAL) [2]: 0 (11×) and 1
BSS scoring R (resting), Time Bin 3 (10-15 TOTAL) [2]: 0 (10×) and 1 (2×)
BSS scoring R (resting), Time Bin 4 (15-20 TOTAL) [2]: 0 (8×) and 1 (4×)
BSS scoring R (resting), Time Bin 6 (25-30 TOTAL) [2]: 1 (3×) and 0 (8×) and 3
BSS scoring A (active), Time Bin 19 (90-95 TOTAL), AVG [3]: 0.10
BSS scoring A (active), Time Bin 20 (95-100 TOTAL), AVG [3]: 0.08
BSS scoring A (active), Time Bin 21 (100-105 TOTAL), AVG [3]: 0.06
BSS scoring A (active), Time Bin 22 (105-110 TOTAL), AVG [3]: 0.02
BSS scoring A (active), Time Bin 23 (110-115 TOTAL), AVG [3]: 0.06
BSS scoring A (active), Time Bin 24 (115-120 TOTAL), AVG [3]: 0.10
BSS scoring E (eating/drinking), Time Bin 19 (90-95 TOTAL), AVG [3]: 0.77
BSS scoring E (eating/drinking), Time Bin 20 (95-100 TOTAL), AVG [3]: 0.75
BSS scoring E (eating/drinking), Time Bin 21 (100-105 TOTAL), AVG [3]: 0.84
BSS scoring E (eating/drinking), Time Bin 22 (105-110 TOTAL), AVG [3]: 0.84
BSS scoring E (eating/drinking), Time Bin 23 (110-115 TOTAL), AVG [3]: 0.75
BSS scoring E (eating/drinking), Time Bin 24 (115-120 TOTAL), AVG [3]: 0.58
BSS scoring G (grooming), Time Bin 19 (90-95 TOTAL), AVG [3]: 0.04
BSS scoring G (grooming), Time Bin 20 (95-100 TOTAL), AVG [3]: 0.05
BSS scoring G (grooming), Time Bin 21 (100-105 TOTAL), AVG [3]: 0.05
BSS scoring G (grooming), Time Bin 22 (105-110 TOTAL), AVG [3]: 0.01
BSS scoring G (grooming), Time Bin 23 (110-115 TOTAL), AVG [3]: 0.08
BSS scoring G (grooming), Time Bin 24 (115-120 TOTAL), AVG [3]: 0.07
BSS scoring R (resting), Time Bin 19 (90-95 TOTAL), AVG [3]: 0.09
BSS scoring R (resting), Time Bin 20 (95-100 TOTAL), AVG [3]: 0.12
BSS scoring R (resting), Time Bin 21 (100-105 TOTAL), AVG [3]: 0.05
BSS scoring R (resting), Time Bin 22 (105-110 TOTAL), AVG [3]: 0.13
BSS scoring R (resting), Time Bin 23 (110-115 TOTAL), AVG [3]: 0.11
BSS scoring R (resting), Time Bin 24 (115-120 TOTAL), AVG [3]: 0.08
BSS scoring A (active), Time Bin 19 (90-95 TOTAL) [4]: 2 (3×) and 0 (7×) and 3 (2×)
BSS scoring A (active), Time Bin 20 (95-100 TOTAL) [4]: 0 (7×) and 1 (2×) and 4 and 2 (2×)
BSS scoring A (active), Time Bin 21 (100-105 TOTAL) [4]: 0 (7×) and 1 (4×) and 3
BSS scoring A (active), Time Bin 22 (105-110 TOTAL) [4]: 0 (11×) and 2
BSS scoring A (active), Time Bin 23 (110-115 TOTAL) [4]: 0 (6×) and 1 (5×) and 2
BSS scoring A (active), Time Bin 24 (115-120 TOTAL) [4]: 0 (8×) and 6 and 1 and 3 and 2
BSS scoring E (eating/drinking), Time Bin 19 (90-95 TOTAL) [4]: 8 and 9 (3×) and 5 (2×) and 10 (2×) and 7 (3×) and 6
BSS scoring E (eating/drinking), Time Bin 20 (95-100 TOTAL) [4]: 9 (5×) and 8 and 0 and 10 (2×) and 4 and 6 and 7
BSS scoring E (eating/drinking), Time Bin 21 (100-105 TOTAL) [4]: 8 (4×) and 9 (2×) and 7 (3×) and 10 (3×)
BSS scoring E (eating/drinking), Time Bin 22 (105-110 TOTAL) [4]: 7 and 8 (4×) and 9 (3×) and 10 (3×) and 5
BSS scoring E (eating/drinking), Time Bin 23 (110-115 TOTAL) [4]: 6 (5×) and 8 (3×) and 9 (4×)
BSS scoring E (eating/drinking), Time Bin 24 (115-120 TOTAL) [4]: 10 (2×) and 9 and 0 (2×) and 7 (2×) and 4 (2×) and 5 and 6 and 8
BSS scoring G (grooming), Time Bin 19 (90-95 TOTAL) [4]: 0 (9×) and 3 and 1 (2×)
BSS scoring G (grooming), Time Bin 20 (95-100 TOTAL) [4]: 0 (7×) and 1 (4×) and 2
BSS scoring G (grooming), Time Bin 21 (100-105 TOTAL) [4]: 0 (7×) and 1 (4×) and 2
BSS scoring G (grooming), Time Bin 22 (105-110 TOTAL) [4]: 0 (11×) and 1
BSS scoring G (grooming), Time Bin 23 (110-115 TOTAL) [4]: 4 and 2 (2×) and 0 (7×) and 1 (2×)
BSS scoring G (grooming), Time Bin 24 (115-120 TOTAL) [4]: 0 (7×) and 2 (3×) and 1 (2×)
BSS scoring R (resting), Time Bin 19 (90-95 TOTAL) [4]: 0 (6×) and 1 (3×) and 3 (2×) and 2
BSS scoring R (resting), Time Bin 20 (95-100 TOTAL) [4]: 1 (5×) and 0 (5×) and 7 and 2
BSS scoring R (resting), Time Bin 21 (100-105 TOTAL) [4]: 2 and 0 (9×) and 3 and 1
BSS scoring R (resting), Time Bin 22 (105-110 TOTAL) [4]: 3 (2×) and 2 (4×) and 0 (4×) and 1 (2×)
BSS scoring R (resting), Time Bin 23 (110-115 TOTAL) [4]: 0 (3×) and 1 (6×) and 2 (2×) and 3
BSS scoring R (resting), Time Bin 24 (115-120 TOTAL) [4]: 0 (7×) and 1 (2×) and 4 and 2 (2×)
